# Source: patent US20250197407A1 (Jazz Pharmaceuticals Ireland Limited, priority 2022, published 2025)
# Target: SOS1/KRAS WT (Homo sapiens (Human), UniProt Q07889)
# Test: SOS1/KRAS WT HTRF binding assay (FRET-based protein-protein interaction)
# Details: inhibition of His6-SOS1 (aa564-1049, 40 nM) binding to GST-KRAS-WT (aa1-188, 40 nM); at least two independent replicates; read-out: SOS1/KRAS WT HTRF Binding assay pIC50 (converted)
# Procedure, shortened: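 Time-resolved FRET at 665 nm, read 4 hr after adding anti-GST-Eu(K) (4 nM) and anti-6His-XL665 (20 nM), tracked SOS1(aa564-1049)–KRAS WT(aa1-188) association. Both proteins were at 40 nM, pre-incubated 60 min at room temperature with compound. Max/min signals came from 0.05% DMSO and 10 μM reference, with four-parameter logistic IC50.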
# Chain of SOS1/KRAS WT (Q07889 564-1049): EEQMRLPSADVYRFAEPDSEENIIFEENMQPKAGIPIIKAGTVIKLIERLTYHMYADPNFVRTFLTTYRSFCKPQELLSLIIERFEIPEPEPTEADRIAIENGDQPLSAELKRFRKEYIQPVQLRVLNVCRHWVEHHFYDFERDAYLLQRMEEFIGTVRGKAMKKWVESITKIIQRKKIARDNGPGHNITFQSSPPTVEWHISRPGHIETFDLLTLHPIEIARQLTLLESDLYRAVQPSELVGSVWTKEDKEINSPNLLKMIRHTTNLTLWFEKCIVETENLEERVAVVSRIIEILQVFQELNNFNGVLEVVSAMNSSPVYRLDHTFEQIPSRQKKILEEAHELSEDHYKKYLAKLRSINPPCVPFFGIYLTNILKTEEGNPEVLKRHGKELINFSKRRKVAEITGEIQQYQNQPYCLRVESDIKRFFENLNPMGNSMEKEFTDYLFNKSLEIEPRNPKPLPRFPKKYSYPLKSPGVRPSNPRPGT
row,Structure (SMILES),IC50 [nM]
1,"Cc1c([C@@H](C)Nc2nnc(C)c3cc4c(cc23)N(C(C)C)C(=O)C4(C)C)cccc1C(F)(F)CO [Compound 79, 1-isopropyl-3,3,5-trimethyl-8-[[(1R)-1-[3-(1,1-difluoro-2-hydroxy-ethyl)-2-methyl-phenyl]ethyl]amino]pyrrolo[2,3-g]phthalazin-2-one]",6.76
2,"Cc1nnc(N[C@H](C)c2cc(F)cc(C(F)(F)CO)c2)c2cc3c(cc12)C1(CCCC1)C(=O)N3C [Compound 187, 1′,5′-dimethyl-8′-[[(1R)-1-[3-(1,1-difluoro-2-hydroxy-ethyl)-5-fluoro-phenyl]ethyl]amino]spiro [cyclopentane-1,3′-pyrrolo[2,3-g]phthalazine]-2′-one]",21.9
3,"CCN1C(=O)C(C)(OC)c2cc3c(C)nnc(N[C@H](C)c4cccc(C(F)(F)CO)c4)c3cc21 (stereo partly drawn) [Compound 171, 1-ethyl-3-methoxy-3,5-dimethyl-8-[[(1R)-1-[3-(1,1-difluoro-2-hydroxy-ethyl)phenyl]ethyl]amino]pyrrolo [2,3-g]phthalazin-2-one]",9.77
4,"Cc1nnc(N[C@H](C)c2cccc(C(F)(F)CO)c2)c2cc3c(cc12)N(C)C(=O)C3(C)C [Compound 95, 1,3,3,8-tetramethyl-5-[[(1R)-1-[3-(1,1-difluoro-2-hydroxy-ethyl)phenyl]ethyl]amino]pyrrolo [3,2-g]phthalazin-2-one]",7.41
5,"CCOC1(C)C(=O)N(C)c2cc3c(N[C@H](C)c4cccc(C(F)(F)CO)c4)nnc(C)c3cc21 (stereo partly drawn) [Compound 133, 3-ethoxy-1,3,5-trimethyl-8-[[(1R)-1-[3-(1,1-difluoro-2-hydroxy-ethyl)phenyl]ethyl]amino]pyrrolo [2,3-g]phthalazin-2-one]",8.51
6,"Cc1c([C@@H](C)Nc2nnc(C)c3cc4c(cc23)n(C2CC2)c(=O)n4C)cccc1C(F)(F)C(C)(C)O [Compound 210, 3-cyclopropyl-5-[[(1R)-1-[3-(1,1-difluoro-2-hydroxy-2-methyl-propyl)-2-methyl-phenyl]ethyl]amino]-1,8-dimethyl-imidazo[4,5-g]phthalazin-2-one]",13.2
7,"Cc1nnc(N[C@H](C)c2cccc(C(F)(F)CO)c2)c2cc3c(cc12)C1(CCOCC1)C(=O)N3C1CC1 [Compound 112, 1-cyclopropyl-5-methyl-8-[[(1R)-1-[3-(1,1-difluoro-2-hydroxy-ethyl)phenyl]ethyl]amino]spiro [pyrrolo[2,3-g]phthalazine-3,4′-tetrahydropyran]-2-one]",11
8,"CCC1(OC)C(=O)N(C)c2cc3c(N[C@H](C)c4cccc(C(F)(F)C(C)(C)O)c4C)nnc(C)c3cc21 (stereo partly drawn) [Compound 209, 3-ethyl-3-methoxy-1,5-dimethyl-8-[[(1R)-1-[3-(1,1-difluoro-2-hydroxy-2-methyl-propyl)-2-methyl-phenyl]ethyl]amino]pyrrolo[2,3-g]phthalazin-2-one]",9.55
9,"Cc1c(-c2ccn(C)n2)cccc1[C@@H](C)Nc1nnc(C)c2cc3c(cc12)n(C)c(=O)n3C [Compound 151, 1,3,8-trimethyl-5-[[(1R)-1-[2-methyl-3-(1-methylpyrazol-3-yl)phenyl]ethyl]amino]imidazo[4,5-g]phthalazin-2-one]",11
10,"Cc1nnc(N[C@H](C)c2cccc(C(F)(F)CO)c2F)c2cc3c(cc12)n(C)c(=O)n3C(C)C [Compound 15, 3-isopropyl-1,8-dimethyl-5-[[(1R)-1-[3-(1,1-difluoro-2-hydroxy-ethyl)-2-fluoro-phenyl]ethyl]amino]imidazo[4,5-g]phthalazin-2-one]",8.32
11,"CCC1(OC)C(=O)N(C)c2cc3c(C)nnc(N[C@H](C)c4cccc(C(F)(F)CO)c4)c3cc21 (stereo partly drawn) [Compound 196, 5-[[(1R)-1-[3-(1,1-difluoro-2-hydroxy-ethyl)phenyl]ethyl]amino]-3-ethyl-3-methoxy-1,8-dimethyl-pyrrolo[2,3-g]phthalazin-2-one]",25.1
